molecular target: T1, recombinant human sEH (Homo sapiens, UniProt P34913); test: In vitro evaluation test for sEH inhibitory activity; assay type: biochemical; settings: recombinant human sEH 0.026 μg/mL, fluorescent substrate 6.25 μmol/L, room temperature
T1 construct: purchased Cayman
T1 sequence (P34913 1-555): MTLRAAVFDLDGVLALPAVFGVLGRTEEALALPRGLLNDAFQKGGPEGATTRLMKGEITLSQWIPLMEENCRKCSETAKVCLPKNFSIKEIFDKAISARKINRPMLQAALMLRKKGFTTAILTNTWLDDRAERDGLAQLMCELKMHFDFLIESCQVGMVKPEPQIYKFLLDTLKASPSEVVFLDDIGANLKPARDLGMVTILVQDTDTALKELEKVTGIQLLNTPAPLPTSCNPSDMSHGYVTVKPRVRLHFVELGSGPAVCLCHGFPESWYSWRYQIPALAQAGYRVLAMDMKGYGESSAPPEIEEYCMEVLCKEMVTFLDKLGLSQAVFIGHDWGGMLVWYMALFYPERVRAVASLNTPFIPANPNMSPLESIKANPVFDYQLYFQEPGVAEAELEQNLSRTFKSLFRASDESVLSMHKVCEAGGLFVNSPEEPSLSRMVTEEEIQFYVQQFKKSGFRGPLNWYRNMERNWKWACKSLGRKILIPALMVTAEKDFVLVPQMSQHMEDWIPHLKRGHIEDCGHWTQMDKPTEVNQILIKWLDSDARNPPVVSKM
Description: According to the method described in a known document (Analytical Biochemistry, 2005, vol. 343, p. 66-75), the sEH inhibitory activity of each nipecotic acid derivative (I) or a pharmaceutically acceptable salt thereof was evaluated using human sEH.
A recombinant human sEH (final concentration, 0.026 μg/mL; Cayman) was incubated with each test compound in 25 mM Bis-Tris-HCl buffer (pH 7.0) supplemented with 0.1 mg/mL BSA at room temperature for 30 minutes. Thereafter, cyano(6-methoxynaphthalen-2-yl)methyl 2-(3-phenyloxiran-2-yl)acetate (final concentration, 6.25 μmol/L; Cayman) was added thereto as a fluorescent substrate, and the resulting mixture was incubated at room temperature for 20 minutes. The reaction was then stopped by addition of ZnSO4 (final concentration, 0.2 mol/L), and the fluorescence intensity was measured (Fusion α (Packard); Excitation: 330 nm, Emission:485 nm).
The fluorescence intensity observed with addition of neither sEH nor a test compound was regarded as the sEH enzymatic reaction rate of 0%, and the fluorescence intensity observed with addition of sEH but without addition of a test compound was regarded as the sEH enzymatic reaction rate of 100%. From the obtained fluorescence intensity, the sEH enzymatic reaction rate of each test compound was calculated to determine IC50.

| SMILES | IC50 |
| --- | --- |
| O=C(Nc1ccc(C(F)(F)F)cn1)[C@@H]1CCCN(C(=O)C2(O)CCCCC2)C1 [Comparative Example Compound 1, (R)-1-(1-hydroxycyclohexanecarbonyl)-N-(5-(trifluoromethyl)pyridin-2-yl)piperidine-3-carboxamide, reference compound] | > 20 nM |
| CC(=O)NCC(=O)N1CCC[C@@H](C(=O)NCc2ccc(C#N)cc2OC(F)(F)F)C1 [Comparative Example Compound 2, (R)-1-(2-acetamidoacetyl)-N-(4-cyano-2-(trifluoromethoxy)benzyl)piperidine-3-carboxamide, reference compound] | > 30 nM |
| CS(=O)(=O)NC1(C(=O)N2CCC[C@@H](C(=O)NCc3ccc(C#N)cc3OC(F)(F)F)C2)CC1 [Example Compound 3, (R)—N-(4-cyano-2-(trifluoromethoxy)benzyl)-1-(1-(methylsulfonamido)cyclopropanecarbonyl)piperidine-3-carboxamide] | 3.5 nM |
| N#Cc1ccc(CNC(=O)[C@@H]2CCCN(C(=O)C3(C(F)(F)F)CC3)C2)c(OC(F)(F)F)c1 [Example Compound 4, (R)—N-(4-cyano-2-(trifluoromethoxy)benzyl)-1-(1-(trifluoromethyl)cyclopropanecarbonyl)piperidine-3-carboxamide] | 1 nM |
| CS(=O)(=O)NC1(C(=O)N2CCC[C@@H](C(=O)NCc3ccc(C#N)cc3OC(F)(F)F)C2)CCC1 [Example Compound 5, (R)—N-(4-cyano-2-(trifluoromethoxy)benzyl)-1-(1-(methylsulfonamido)cyclobutanecarbonyl)piperidine-3-carboxamide] | 1 nM |
| CC(C)C(=O)NC1(C(=O)N2CCC[C@@H](C(=O)NCc3ccc(C#N)cc3OC(F)(F)F)C2)CCC1 [Example Compound 6, (R)—N-(4-cyano-2-(trifluoromethoxy)benzyl)-1-(1-isobutylamidocyclobutanecarbonyl)piperidine-3-carboxamide] | 1 nM |
| CC(C)(C)C(=O)NC1(C(=O)N2CCC[C@@H](C(=O)NCc3ccc(C#N)cc3OC(F)(F)F)C2)CCC1 [Example Compound 7, (R)—N-(4-cyano-2-(trifluoromethoxy)benzyl)-1-(1-pivalamidocyclobutanecarbonyl)piperidine-3-carboxamide] | 0.8 nM |
| CC(=O)NC1(C(=O)N2CCC[C@@H](C(=O)NCc3ccc(C#N)cc3OC(F)(F)F)C2)CCCC1 [Example Compound 8, (R)-1-(1-acetamidocyclopentanecarbonyl)-N-(4-cyano-2-(trifluoromethoxy)benzyl)piperidine-3-carboxamide] | 1.7 nM |
| CC(=O)NC1(C(=O)N2CCC[C@@H](C(=O)NCc3ccc(C#N)cc3OC(F)(F)F)C2)CCC1 [Example Compound 9, (R)-1-(1-acetamidocyclobutanecarbonyl)-N-(4-cyano-2-(trifluoromethoxy)benzyl)piperidine-3-carboxamide] | 6.1 nM |
| CC(C)(NS(C)(=O)=O)C(=O)N1CCC[C@@H](C(=O)NCc2ccc(Cl)cc2OCC(F)(F)F)C1 [Example Compound 10, (R)—N-(4-chloro-2-(2,2,2-trifluoroethoxy)benzyl)-1-(2-methyl-2-(methylsulfonamido)propanoyl)piperidine-3-carboxamide] | 2.6 nM |
| CC(=O)N[C@@H](C(=O)N1CCC[C@@H](C(=O)NCc2ccc(C#N)cc2OC(F)(F)F)C1)C(C)C [Example Compound 11, (R)-1-((R)-2-acetamido-3-methylbutanoyl)-N-(4-cyano-2-(trifluoromethoxy)benzyl)piperidine-3-carboxamide] | 0.5 nM |
| CC(C)[C@@H](NS(C)(=O)=O)C(=O)N1CCC[C@@H](C(=O)NCc2ccc(C#N)cc2OC(F)(F)F)C1 [Example Compound 12, (R)—N-(4-cyano-2-(trifluoromethoxy)benzyl)-1-((R)-3-methyl-2-(methylsulfonamido)butanoyl)piperidine-3-carboxamide] | 0.3 nM |
| CCS(=O)(=O)NC1(C(=O)N2CCC[C@@H](C(=O)NCc3ccc(C#N)cc3OC(F)(F)F)C2)CC1 [Example Compound 13, (R)—N-(4-cyano-2-(trifluoromethoxy)benzyl)-1-(1-(ethylsulfonamido)cyclopropanecarbonyl)piperidine-3-carboxamide] | 1.4 nM |
| CC(C)(NS(C)(=O)=O)C(=O)N1CCC[C@@H](C(=O)NCc2ccc(C(N)=O)cc2OC(F)(F)F)C1 [Example Compound 14, (R)—N-(4-carbamoyl-2-(trifluoromethoxy)benzyl)-1-(2-methyl-2-(methylsulfonamido)propanoyl)piperidine-3-carboxamide] | 1.5 nM |
| CS(=O)(=O)NC1(C(=O)N2CCC[C@@H](C(=O)NCc3ccc(C(N)=O)cc3OC(F)(F)F)C2)CC1 [Example Compound 15] | 1.9 nM |
| CC(C)(O)C(=O)N1CCC[C@@H](C(=O)NCc2ccc(C#N)cc2OC(F)(F)F)C1 [Example Compound 16, (R)—N-(4-cyano-2-(trifluoromethoxy)benzyl)-1-(2-hydroxy-2-methylpropanoyl)piperidine-3-carboxamide] | 2.4 nM |
| CC(C)(C)C(=O)N1CCC[C@@H](C(=O)NCc2ccc(C#N)cc2OC(F)(F)F)C1 [Example Compound 17, (R)—N-(4-cyano-2-(trifluoromethoxy)benzyl)-1-pivaloylpiperidine-3-carboxamide] | 1.1 nM |
| CN(C1(C(=O)N2CCC[C@@H](C(=O)NCc3ccc(C#N)cc3OC(F)(F)F)C2)CC1)S(C)(=O)=O [Example Compound 18, (R)—N-(4-cyano-2-(trifluoromethoxy)benzyl)-1-(1-(N-methylmethylsulfonamido)cyclopropanecarbonyl)piperidine-3-carboxamide] | 1.6 nM |
| CC(C)(CO)C(=O)N1CCC[C@@H](C(=O)NCc2ccc(C#N)cc2OC(F)(F)F)C1 [Example Compound 19, (R)—N-(4-cyano-2-(trifluoromethoxy)benzyl)-1-(3-hydroxy-2,2-dimethylpropanoyl)piperidine-3-carboxamide] | 1.3 nM |
| N#Cc1ccc(CNC(=O)[C@@H]2CCCN(C(=O)C3(O)CCCCC3)C2)c(OC(F)(F)F)c1 [Example Compound 20, (R)—N-(4-cyano-2-(trifluoromethoxy)benzyl)-1-(1-hydroxycyclohexanecarbonyl)piperidine-3-carboxamide] | 0.7 nM |
| CC[C@@H](NC(C)=O)C(=O)N1CCC[C@@H](C(=O)NCc2ccc(C#N)cc2OC(F)(F)F)C1 [Example Compound 21, (R)-1-((R)-2-acetamidobutanoyl)-N-(4-cyano-2-(trifluoromethoxy)benzyl)piperidine-3-carboxamide] | 0.9 nM |
| CC[C@@H](NS(C)(=O)=O)C(=O)N1CCC[C@@H](C(=O)NCc2ccc(C#N)cc2OC(F)(F)F)C1 [Example Compound 22, (R)—N-(4-cyano-2-(trifluoromethoxy)benzyl)-1-((R)-2-(methylsulfonamido)butanoyl)piperidine-3-carboxamide] | 0.5 nM |
| N#Cc1ccc(CNC(=O)[C@@H]2CCCN(C(=O)C3(C#N)CC3)C2)c(OC(F)(F)F)c1 [Example Compound 23, (R)—N-(4-cyano-2-(trifluoromethoxy)benzyl)-1-(1-cyanocyclopropanecarbonyl)piperidine-3-carboxamide] | 1.8 nM |
| CC(=O)N[C@H](C)C(=O)N1CCC[C@@H](C(=O)NCc2ccc(C#N)cc2OC(F)(F)F)C1 [Example Compound 24, (R)-1-((R)-2-acetamidopropanoyl)-N-(4-cyano-2-(trifluoromethoxy)benzyl)piperidine-3-carboxamide] | 2.5 nM |
| C[C@@H](NS(C)(=O)=O)C(=O)N1CCC[C@@H](C(=O)NCc2ccc(C#N)cc2OC(F)(F)F)C1 [Example Compound 25, (R)—N-(4-cyano-2-(trifluoromethoxy)benzyl)-1-((R)-2-(methylsulfonamido)propanoyl)piperidine-3-carboxamide] | 1.8 nM |
| CC(C)C(=O)NC1(C(=O)N2CCC[C@@H](C(=O)NCc3ccc(C#N)cc3OC(F)(F)F)C2)CC1 [Example Compound 26, (R)—N-(4-cyano-2-(trifluoromethoxy)benzyl)-1-(1-isobutylamidocyclopropanecarbonyl)piperidine-3-carboxamide] | 5.8 nM |
| CC(C)(C)C(=O)NC1(C(=O)N2CCC[C@@H](C(=O)NCc3ccc(C#N)cc3OC(F)(F)F)C2)CC1 [Example Compound 27, (R)—N-(4-cyano-2-(trifluoromethoxy)benzyl)-1-(1-pivalamidocyclopropanecarbonyl)piperidine-3-carboxamide] | 2.2 nM |

— patent US20150065717A1, “NIPECOTIC ACID DERIVATIVE AND USE THEREOF FOR MEDICAL PURPOSES” (Toray Industries, Inc., priority 2012, published 2015)
